Measurements: patent publication US11471506B2, “VIP antagonists and uses in treating cancer” (Emory University, priority 2018, dated 2022)
“Also recorded” adds a separate entry of the source. Ends that are not written are not given here.

Tests used:
T cells = assay: in vitro T cell proliferation in response to stimulation with anti-CD3 antibodies, with or without exogenous VIP; type: cell-based; details: for reversal / block of the suppressive effect of exogenous VIP on T cell proliferation: exogenous VIP peptide added
Description: Whether VIPhyb treatment would enhance T cell activation and cytotoxicity in response to melanoma, which can be highly immunogenic, was tested.
The anticancer activity of treatment with VIPhyb appears to be T cell mediated.

[1] = test system: luciferase expressing splenocytes from B6 mice; assay: splenocyte co-culture with irradiated B16F1 and B16F10 cells, proliferation by BLI; type: cell-based, mouse; details: co-culture with irradiated B16 cells, anti-CD3 pre-coated plates, low-dose IL-2, 3 days
Description: Splenocytes isolated from 3 naïve luciferase+ B6 mouse were cultured with irradiated B16 cells and with or without VIPhyb in triplicate, and proliferation measured with BLI.
Whether combination of a VIPhyb with a PD-1 inhibitor could enhance an adaptive immune response to the more aggressive B16F10 model in vitro was investigated. Therefore, irradiated B16F1 and B16F10 cells were co-cultured with luciferase expressing splenocytes from B6 mice. Cells were placed in 96-well plates pre-coated with anti-CD3 antibody and low-dose recombinant murine IL-2 for 3 days and assessed proliferation by BLI.

[2] = test system: KPC luc pancreatic cancer cells; assay: MTT assay of viable KPC luc cells after VIPhyb; type: cell-based, murine; details: 0, 0.5, 1, 3 and 5 uM VIPhyb, 24 hours
Description: KPC luc pancreatic cancer cells were cultured in a 96 well plate for 24 hours with different concentrations of VIPhyb (0, 0.5, 1, 3 and 5 uM). Number of viable cells after 24 hours were quantified via MTT assay.

B16F10 cells = assay: B16F10 melanoma model in B6 Albino mice, VIPhyb and/or anti-PD-1 antibody; type: in vivo, mouse; details: VIPhyb 10 μg s.c. daily for 10 days, PD-1 antibody 200 μg i.p. every 3 days, three doses, versus untreated
Description: Tumor volumes were calculated as […].
B16F10 cells were injected into B6 Albino mice. VIPhyb (10 μg) was administered subcutaneously every day for 10 days. Three doses of 200 μg of an PD-1 antibody was intraperitoneally administered every 3 days. A combination both VIPhyb and the PD-1 antibody were also administered.

B16F1 cells = assay: B16F1 melanoma syngeneic model in B6 Albino mice, VIPhyb alone; type: in vivo, mouse
Description: To investigate VIPhyb as an immunotherapy for melanoma, and to determine the best route of administration, Luciferase-expression B16F1 cells were injected into B6 Albino syngeneic recipients and given 10 μg of VIPhyb peritumorally or subcutaneously on the contralateral flank beginning 1 day before tumor inoculation and continuing daily until the experimental endpoint.
Whether VIPhyb has an effect on adaptive immunity was testes. Mice with tumors that exceeded 500 mm^3 in volume were euthanized and their splenocytes phenotyped using flow cytometry. Blood was also collected for a complete blood count (CBC) to determine amount of peripheral white blood cells (WBCs). Of particular interest was the expansion of CD8+ T cells to corroborate the in vitro data, and expression of the inhibitory molecule PD-1.

melanoma = assay: direct effect of VIPhyb on melanoma cells; type: cell-based; details: melanoma expressing VPAC2
[3] = in vitro stability of the peptide on the nanoparticle; type: physicochemical; details: nanoparticle-conjugated peptide

| Substance | in vitro T cell proliferation in response to stimulation with anti-CD3 antibodies (T cells) | reversal / block of the suppressive effect of exogenous VIP on T cell proliferation (T cells) | splenocyte / T cell proliferation [1] | number of viable cells (direct killing) [2] | tumor volume / tumor growth (B16F10 cells) | survival (B16F1 cells; B16F1, 10 μg VIPhyb daily) | tumor volume / tumor growth (B16F1 cells; B16F1, 10 μg VIPhyb daily, digital calipers twice weekly, versus untreated) | overall tumor burden by bioluminescent imaging (B16F1 cells; B16F1, once weekly BLI) | peripheral WBCs (B16F1 cells; peripheral blood, complete blood count) | tumor burden between the two routes of administration (B16F1 cells; peritumorally versus subcutaneously on the contralateral flank) | B cells (B16F1 cells; spleen upon euthanasia) | NK cells (B16F1 cells; spleen upon euthanasia) | dendritic cell subtypes (B16F1 cells; spleen upon euthanasia) | CD4+ T cells (B16F1 cells; spleen upon euthanasia, flow cytometry) | CD8+ T cells (B16F1 cells; spleen upon euthanasia, flow cytometry, versus PBS/saline-treated controls) | frequency of IFNγ, TNF, Granzyme B, and IL-2-producing cells in the CD4+ and CD8+ compartments (B16F1 cells; spleen, intracellular cytokine staining, versus PBS treated controls) | frequency of CD4+ and CD8+ T cells expressing PD-1, CTLA-4, and Lag-3 (B16F1 cells; spleen, versus PBS treated controls) | direct effect on melanoma growth, invasiveness, and modulation of inhibitory surface molecules (melanoma) | potency of the nanoparticle formulation (T cells; nanoparticle formulation versus free peptide) | stabilization of the peptide in vitro [3] |
| --- | --- | --- | --- | --- | --- | --- | --- | --- | --- | --- | --- | --- | --- | --- | --- | --- | --- | --- | --- | --- |
| KPRRPYTDNYTRLRKQMAVKKYLNSILN [VIPhyb, hybrid peptide of neurotensin (6-11) and VIP (7-28); antagonist of VIP signalling] | dose-dependent enhancement | reversal of the suppressive effect of exogenous VIP peptide; also recorded: reversed exogenous VIP mediated splenic T cell suppression | not enough to promote expansion of splenocytes; also recorded: lack of splenocyte proliferation | does not directly kill | lower average tumor volume | no significant difference | no significant change; also recorded: did not have a significant effect; also recorded: does not affect tumor size | no tumor reduction | nonsignificant modest increase | no difference in tumor burden | nonsignificant increase | nonsignificant increase | nonsignificant increase | nonsignificant modest increase | significantly more; also recorded: Increased CD8+ T cell Proliferation; also recorded: more effector CD8+ T cells; also recorded: bolsters CD8+ proliferation | no significant difference | no significant difference | absence of a direct effect | – | – |
| VIPhyb-NP: VIPhyb with C-terminal GGGGSC linker (SEQ ID NO: 3) conjugated to a 30 nm Pluronic-stabilized polypropylene sulfide nanoparticle (KPRRPYTDNYTRLRKQMAVKKYLNSILNGGGGSC; also: conjugated to 30 nm Pluronic-stabilized polypropylene sulfide nanoparticle) | conserved | able to block the effects of exogenous VIP at higher concentrations | – | – | – | – | – | – | – | – | – | – | – | – | – | – | – | – | increased potency | stabilize the peptide in vitro |
